Assay type in all cases: cell-based, mouse
Data set [1] can be described thus: Cell viability assay (MTS) on BV2 cells. The settings on record: mouse, BV2 microglial cells, MTS. The procedure: (§1) BV2 microglial cells (SCSP-5208, Cell Bank, Chinese Academy of Sciences, Shanghai, China) were incubated in high-glucose DMEM supplemented with 10% fetal bovine serum and 1% penicillin and streptomycin in a humidified atmosphere of 5% CO2 at 37 °C.
(§2) BV2 cells were plated in 96-well microplates at 20,000 cells per well (100 μL/well) and incubated for 24 h. Then, 100 μL of compounds (diluted with medium to a final concentration of 1.56–100 μM) was added, and each concentration had 3 parallel wells. After 24 h, the cell viability was measured by MTS assay. The absorbance was detected at 490 nm. The percentage of viability was obtained from the following formula: ODdrug-treated/ODnormal cells × 100. The IC50 values of test compounds were calculated by linear regression plots.

The subject of a further data set is BV2 microglial cells. Kind of data set: Cell viability assay (MTS) on BV2 cells. The settings on record: for IC50: Mus musculus, BV-2, MTS, 24 h. The procedure:
as §1, §2

The subject of data set [2] is NO release from LPS-stimulated BV2 cells. Put plainly: NO release inhibition in LPS-stimulated BV2 cells (Griess method). The conditions noted are these: for Nitrite (NO release amount): BV2 cells induced by LPS, Griess test; for Nitrite (NO release amount) / inhibition at 20 µM: compound at 20 μM; for IC50 / inhibition at 20 µM: Mus musculus, BV-2, LPS-stimulated BV2 cells; for IC50: 24 h; for inhibition at 20 µM: read-out: NO inhibition rate. On the procedure:
BV2 cells stimulated by lipopolysaccharide (LPS) lead to an increase in NO release. Therefore, we used the inhibitory ability of the target compounds on NO as a preliminary method to evaluate their anti-neuroinflammatory properties. We evaluated the inhibitory ability of isatin–chalcone hybrid derivatives 4a–t on the release of NO from BV2 cells at 20 μM. The release amount of NO was detected by the Griess method, and the actual release amount of NO was calculated based on the experimental data.
BV2 cells were plated in 96-well microplates at 40,000 cells per well (100 μL/well) and incubated for 24 h. Then, 50 μL of LPS solution with a final concentration of 100 ng/mL and 50 μL of compounds (diluted with medium to a final concentration of 0.31–20 μM) were added, and each concentration had 3 parallel wells. The NO assay kit was used to carry out nitrite assays after 24 h. The 50 μL of culture medium was mixed with the GrisR1 (50 μL) and GrisR2 (50 μL) of the NO assay kit in another new 96-well plate. The absorbance was detected at 540 nm. The percentage of inhibition of NO was obtained from the following formula: [(Rlps − RB − RC)/(Rlps − RB)] × 100, where Rlps is the release amount of only the LPS-treated group, RB is the release amount of the normal control and RC is the release amount of the test compound and LPS-treated group. The IC50 values of test compounds were calculated by linear regression plots.
For orientation: Nitrite, measured by Griess reagent, commonly stands in for NO production.

The subject of a further data set is TNF-α. Kind of data set: ELISA of TNF-α released by LPS-stimulated BV2 cells. The conditions noted are these: for effect on production of TNF-α: result in words. The procedure:
(§3) BV2 cells were plated in 96-well microplates at 40,000 cells per well (100 μL/well) and incubated for 24 h. Then, 50 μL of LPS solution with a final concentration of 100 ng/mL and 50 μL of compounds (diluted with medium to a final concentration of 0.75–40 μM) were added, and each concentration had 3 parallel wells. The supernatant was collected after 24 h. Then, according to the manufacturer’s instructions, the ELISA assay kit was used to measure the concentrations of IL-6 and TNF-α. The absorbance was detected at 450 nm.
On the technique in general: An ELISA detects its analyte on a solid surface through an enzyme-linked reagent.

The next data set has as its system IL-6. Kind of data set: ELISA of IL-6 released by LPS-stimulated BV2 cells. The settings on record: for effect on production of IL-6: result in words. The procedure: as §3

As a reminder, the viability is a read-out of living cells in per cent, often relative to untreated cells. For orientation: IC50 means the concentration that gives 50% inhibition. What is called inhibition is the share of the control response that was lost under treatment. Regarding `CCOC(=O)CN1C(=O)/C(=C/C(=O)/C=C/c2ccccc2)c2ccccc21` [Compound 4b, Ethyl 2-((E)-2-oxo-3-((E)-2-oxo-4-phenylbut-3-en-1-ylidene)indolin-1-yl)acetate], in data set [1] (compound at 3.1 μM, read-out: cell viability (cell survival rate)), the viability at 24 h, 3.1 µM was determined as 98.3%. In data set [1] (compound at 6.3 μM (printed 6.23 μM for 4b), read-out: cell viability (cell survival rate)), the viability at 24 h, 6.3 μM came to 89.9%. The compound also returned a viability at 24 h, 12.5 µM in data set [1] (compound at 12.5 μM) of 79.5%. The same compound returned a viability at 24 h, 25 µM in data set [1] (compound at 25 μM, 24 h) of 48%. In the data set on BV2 microglial cells, this compound showed an IC50 of 34.6 µM. In the data set on BV2 microglial cells (under the concentration of 12.5 μM), the cytotoxicity entry was “did not show obvious cytotoxicity”. In data set [2], the “Nitrite (NO release amount)” value worked out at 0.69 ± 0.01 µM, the 50% inhibitory concentration (IC50) came to 1.6 µM and the inhibition at 20 µM is 98%. In the data set on TNF-α (compound at 1.5 μM, p < 0.0001), the “reduction of TNF-α levels” value was 37%. In the data set on TNF-α, the “effect on production of TNF-α” value was “decreased significantly”. The “reduction of IL-6 levels” value in the data set on IL-6 (compound at 1.5 μM, p < 0.0001) is 47%. The “effect on production of IL-6” value in the data set with IL-6 is “decreased significantly”.

For the compound `CCOC(=O)CN1C(=O)/C(=C/C(=O)c2cc(OC)c(OC)c(OC)c2)c2ccccc21` [Compound 4j, Ethyl (E)-2-(2-oxo-3-(2-oxo-2-(3,4,5-trimethoxyphenyl)ethylidene)indolin-1-yl)acetate], the IC50 with BV2 microglial cells is 71.8 µM. In addition, in data set [2], the “Nitrite (NO release amount)” value was 8.6 ± 0.1 µM, half-maximal inhibition (IC50) was put at 15.7 µM and the inhibition at 20 µM is 71%. Further, the “effect on production of TNF-α” value with TNF-α is “relatively weaker inhibitory effects”. Besides, the “effect on production of IL-6” value with IL-6 is recorded as “relatively weaker inhibitory effects”.

Turning to `COc1cc(C(=O)/C=C2/C(=O)N(CC(=O)OCCCc3ccccc3)c3ccccc32)cc(OC)c1OC` [Compound 5g, 3-Phenylpropyl (E)-2-(2-oxo-3-(2-oxo-2-(3,4,5-trimethoxyphenyl)ethylidene)indolin-1-yl)acetate], the IC50 with BV2 microglial cells amounted to 48.5 µM; in data set [2], 6 µM. Also, the “effect on production of TNF-α” value in the data set with TNF-α is “relatively weaker inhibitory effects”. In addition, the “effect on production of IL-6” value in the data set on IL-6 is listed as “relatively weaker inhibitory effects”.

As for `CCOC(=O)CN1C(=O)/C(=C/C(=O)c2cc(OC)c(OC)c(OC)c2)c2cc(C)ccc21` [Compound 9e, Ethyl (E)-2-(5-methyl-2-oxo-3-(2-oxo-2-(3,4,5-trimethoxyphenyl)ethylidene)indolin-1-yl)acetate], the 50% inhibitory concentration (IC50) came to 80.6 µM with BV2 microglial cells and 10.3 µM in data set [2]. In data set [2], the inhibition at 20 µM was found to be 72%. Moreover, in the data set with TNF-α, the “effect on production of TNF-α” value is “relatively weaker inhibitory effects”. For the same compound, the “effect on production of IL-6” value in the data set on IL-6 is “relatively weaker inhibitory effects”.

For the origin of these results see PMC11990898, “Novel Isatin–Chalcone Hybrid Molecules: Design, Synthesis and Anti-Neuroinflammatory Activity Evaluation” (Molecules, 2025).
